Measured values from US10166271B2, “Methods for promoting hair growth” (THE REGENTS OF THE UNIVERSITY OF CALIFORNIA, priority 2006, dated 2019).
“And” between values parts separate entries of the source, which are not always exact repeats. Equal entries are not always repeated.

Tests used:
[1] = test system: hair follicles of CRF-OE mice; assay: Histology of dorsal skin hair follicles (H/E) in CRF-OE mice (Example 3); format: in vivo; conditions: for Hair follicle morphology: H/E-stained skin sections of adult CRF-OE mice; for Skin thickness or hair follicle numbers versus wild type mice: adult CRF-OE mice
Excerpt: Wild-type (C57BL/6) mice, saline-treated CRF-OE mice, CRF-OE mice treated with astressin B or astressin 2B as described in Example 1 (sc injection), and adult CRF-OE mice treated with astressin 2B as described in Example 2 (ip injection), were euthanized, Male mice were used in each case. Whole dorsal skin pieces were harvested for histology four weeks after the final sc injection of the respective peptides or two weeks after ip astressin B or saline injection.
Skin samples were fixed in 4% paraformaldehyde. Paraffin-embedded sections were processed for staining of hematoxylin/eosin and examined by light microscopy. The thickness of the epidermis plus dermis and depth of hair follicles were measured and the number of hair follicles was counted per unit (a field obtained with 10× objective) in a total of 5 units per section.

[2] = test system: CRF-OE mice; assay: Hair growth and skin pigmentation after sc injection in adult alopecic CRF-OE mice (Example 1); format: in vivo; conditions: for Back Hair Growth Score (BK) / Skin pigmentation (Pg) score: score 0-10, individual mice
Excerpt: Adult (6-9 month old) male and female C57BL/6 mice that overexpress a rat CRF transgene (Stenzel-Poore et al., Endocrinol., 130:3378-3386, 1992) were used in this Example. […] Moreover, these animals display physical changes, such as excess abdominal fat accumulation, muscle atrophy, thin skin, and alopecia on the back and ventral abdomen area. Alopecia in these animals develops after about 7-8 weeks of age and is fully developed at about 4 months of age. This phenotype, i.e., hair loss in adulthood, is similar to that observed in some forms of human alopecia (e.g., the age-dependent balding of adult, human males (and females)).
CRF-OE mice were housed in standard plastic cages in a controlled environment (temperature=21-23° C.; humidity=30-35%; 12-hour light cycle with lights on 06:00 AM) and fed a standard rodent diet (PROLAB™ RMH 2500). Experiments were conducted in accordance with institutional guidelines.
Eight (8) male and 9 female CRF-OE mice were injected subcutaneously with 5 μg/mouse astressin B or astressin 2B, in 0.1 ml sterile water, once per day for 5 consecutive days. Similar doses of astressin B and astressin 2B previously were shown, respectively, to inhibit elevated ACTH release in adrenalectomized rats for over 12 hours (Rivier et al., J. Med. Chem., 42:3175-3182, 1999) and delay gastric emptying for over 6 hours (Rivier et al., J. Med. Chem., 45:4737-4747, 2002). […] CRF-OE mice similarly injected with saline alone were used as negative controls. Astressin B and astressin 2B peptides were synthesized as previously described (Rivier et al., J. Med. Chem., 45:4737-4747, 2002; Gulyas et al., Proc. Natl. Acad. Sci. USA, 92:10575-10579, 1995) and were diluted with sterile water immediately preceding each injection.
It appeared that hair growth (if any) typically was completed by 4 weeks post-treatment.
Hair growth in CRF-OE mice was assessed using the hair growth scale developed by Vegesna et al. […], 2002) modified to account for phenotypic differences between CRF-OE mice. Scores were made visually as well as using photographs of each mouse at a weekly interval. The degree of alopecia varied between individual CRF-OE mice; thus, the percent difference between the amount of hair present in the test area (described below) before and 4 weeks after treatment was converted to a score of 0-10. A zero score corresponded to a no change in the amount of hair in the test area and a score of 10 corresponded to full hair growth in the entire test area. The scale for monitoring hair growth in CRF-OE mice is more particularly described in Table 2.
The area was defined anteriorly by a line joining the front of the ears; posteriorly by a line joining the pelvic girdles; and laterally, between the lines projecting caudally from each ear root.
Pigmentation of the skin (also referred to as skin color) in the test region was also measured because, in C57BL/6 mice, the skin darkens at the onset of hair growth. A pigmentation score from 0-10 was given to each mouse with a score of 0 corresponding to bright pink skin color/pigment in the entire test region, a score of 1-5 corresponding to increasing intensity of a pale greyish color/pigment of skin in the test region, a score of 6-9 corresponding to increasing but non-confluent darker color/pigment of skin in the test region, and a score of 10 corresponding to black pigmentation of the entire test region. Pigmentation was measured one week after the fifth and final injection because changes (if any) in pigmentation are substantially complete by that time.

[3] = test system: young CRF-OE mice; assay: Prevention of hair loss in young (not-yet-alopecic) CRF-OE mice, sc injection (Example 4); format: in vivo; conditions: for Skin pigmentation (Pg) score / Ventral Abdomen Hair Score (VAb) / Back Hair Score (BK): sc 5 μg/mouse/day x 5 days, individual mice and group mean; for Skin pigmentation (Pg) score / Ventral Abdomen Hair Score (VAb) / Induction of skin pigmentation / Hair loss / development of alopecia / Back Hair Score (BK): young CRF-OE mice; for Induction of skin pigmentation: first week post injection; for Hair loss / development of alopecia: week 4 to week 16 post treatment
Protocol: Alopecia in this strain fully develops in adulthood at approximately 12 weeks and older.
Young CRF-OE mice (5-6 weeks old) were treated with astressin B, astressin 2B, or vehicle (saline). Treatments were a single, daily subcutaneous injection (0.1 ml volume) of vehicle alone or 5 μg peptide per mouse for five consecutive days. Pigmentation and hair coverage scores were determined pretreatment and 1, 4, 8 and 16 weeks after the last treatment. Hair growth and pigmentation were determined as described in Examples 1 and 2.

[4] = test system: CRF1/CRF2 receptor; conditions: CRF1/CRF2 receptor antagonist; stated without test; cited from earlier work
[5] = sc 5 μg/mouse/day x 5 days, adult CRF-OE mice, Week 0 (before injection), female mice
[6] = sc 5 μg/mouse/day x 5 days, adult CRF-OE mice, Week 0 (before injection), male mice
[7] = sc 5 μg/mouse/day x 5 days, adult CRF-OE mice, Week 1 after last injection, female mice
[8] = sc 5 μg/mouse/day x 5 days, adult CRF-OE mice, Week 1 after last injection, male mice
[9] = sc 5 μg/mouse/day x 5 days, adult CRF-OE mice, Week 0 (before injection)
[10] = sc 5 μg/mouse/day x 5 days, adult CRF-OE mice, Week 1 after last injection

With “(cyclo 30-33)[DPhe12, Nle21,38, Cml27,40, Glu30, Lys33]Ac-h/rCRF9-41 [Astressin B]” the Hair follicle morphology [1] was “more developed and defined in structure”, the “Skin thickness or hair follicle numbers versus wild type mice” value [1] was “no significant differences” and the “Average depth of hair follicles” value ([1]; treated adult CRF-OE mice (FIG. 3B, 4 weeks after last sc treatment), not significantly different from wild type) was 0.42±0.05 mm. The “Mice responding with increased pigmentation and hair growth” value ([2]; female CRF-OE mice, 8 out of 9, sc) was 89%, the “Mice responding with increased pigmentation and hair growth” value ([2]; male CRF-OE mice, 4 out of 4, sc) was 100% and the “Back Hair Growth Score (BK)” value [2, 5] was 0 (5×) and 1. The “Skin pigmentation (Pg) score” value [2, 5] was 0, the “Back Hair Growth Score (BK)” value [2, 6] was 0 (2×) and 1 (2×) and the “Skin pigmentation (Pg) score” value [2, 6] was 0. The “Back Hair Growth Score (BK)” value [2, 7] was 2 (5×) and 1, the “Skin pigmentation (Pg) score” value [2, 7] was 2 and 8 (2×) and 10 and 0 and 7 and the “Back Hair Growth Score (BK)” value [2, 8] was 2 (2×) and 1 (2×). The “Skin pigmentation (Pg) score” value [2, 8] was 10 (2×) and 7 and 4, the “Back Hair Growth Score (BK)” value ([2]; sc 5 μg/mouse/day x 5 days, adult CRF-OE mice, Week 4 after last injection, female mice) was 2 and 8 (2×) and 9 (2×) and 0 and the “Back Hair Growth Score (BK)” value ([2]; sc 5 μg/mouse/day x 5 days, adult CRF-OE mice, Week 4 after last injection, male mice) was 8 and 9 and 7 and 6. The “Hair growth maintained post treatment” value ([2]; sc, adult CRF-OE mice) was “at least 4 weeks”, the “Onset of hair growth” value ([2]; sc, adult CRF-OE mice, FIG. 1B) was “as early as one week after the last injection” and the Hair growth coverage ([2]; sc, range over treated adult CRF-OE mice) was 20-90%. The “Hair growth substantially maintained without subsequent treatment” value ([2]; two adult CRF-OE mice observed for an extended period, post treatment) was “up to 4 months”, the “Mice with dark pigmentation of the skin” value ([3]; 1 week after the last injection, fraction of mice) was 5/5 and the “Mice with little or less hair loss (as compared to vehicle-treated subjects)” value ([3]; by 4, 8 and 16 weeks after the last injection, fraction of mice) was 4/5. The “Skin pigmentation (Pg) score” value ([3]; Before (Week 0)) was 0, the “Ventral Abdomen Hair Score (VAb)” value ([3]; Week 4) was 10 and the “Induction of skin pigmentation” value [3] was “induced skin pigmentation within one week after the final injection”. For the same substance, the “Hair loss / development of alopecia” value [3] was “remained protected from developing full alopecia”, the “Hair loss / development of alopecia” value ([3]; listed as astressin 1) was “started to lose hair gradually 2 months after treatment” and the “Duration of action (long acting)” value [4] was no less than 24 h.

With “cyclo(31-34)[DPhe11, His12, CαMeLeu13,39, Nle17, Glu31, Lys34]Ac-Sau(8-40) [Astressin 2B, reference compound]” the Hair follicle morphology [1] was “did not have the normal morphology found in wild-type mice”, the “Skin thickness or hair follicle numbers versus wild type mice” value [1] was “no significant differences” and the “Mice that grew significant amounts of hair” value ([2]; sc 5 μg/mouse/day x 5 days, adult CRF-OE mice) was 0%. The “Back Hair Growth Score (BK)” value [2, 9] was 0 (2×) and 5, the “Skin pigmentation (Pg) score” value [2, 9] was 0 and the “Back Hair Growth Score (BK)” value [2, 10] was 0. The “Skin pigmentation (Pg) score” value [2, 10] was 1 and 2 (2×), the “Back Hair Growth Score (BK)” value ([2]; sc 5 μg/mouse/day x 5 days, adult CRF-OE mice, Week 4 after last injection) was 0 and the “Back Hair Score (BK)” value ([3]; Before (Week 0)) was 9. For the same substance, the “Skin pigmentation (Pg) score” value ([3]; Before (Week 0)) was 0, the “Back Hair Score (BK)” value ([3]; Week 1) was 9 and the “Ventral Abdomen Hair Score (VAb)” value ([3]; Week 16) was 2.5. The “Induction of skin pigmentation” value [3] was “moderate induction of skin pigments” and the “Hair loss / development of alopecia” value [3] was “lost hair and developed full alopecia”.
